Data reported in PubChem BioAssay AID192 (DTP/NCI, 2004).
“And” between values parts separate entries of the source, which are not always exact repeats. Equal entries are not always repeated. Inconclusive results and toxic doses are left out. Rule for the calls: active = survival T/C of 150% or more; inactive = T/C below 125% in these data.

System: BDF1 mice, B16 melanoma ip, median survival T/C
Experiment: NCI In Vivo Anticancer Drug Screen. Data for tumor model B16 Melanoma (intraperitoneal) in B6D2F1 (BDF1) mice
Settings: endpoint: median survival time, higher = longer survival
Summary of the method: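 Mice with transplantable tumors; drug vs vehicle groups; endpoint survival or tumor size; value = T/C.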

[1] = dose: 25.0 mg/kg/injection, schedule: Q01DX009 (ip), vehicle: saline with Tween-80
[2] = dose: 50.0 mg/kg/injection, schedule: Q01DX009 (ip), vehicle: saline with Tween-80
[3] = dose: 100.0 mg/kg/injection, schedule: Q01DX009 (ip), vehicle: Klucel (hydroxypropylcellulose) (HPC)
[4] = dose: 200.0 mg/kg/injection, schedule: Q01DX009 (ip), vehicle: Klucel (hydroxypropylcellulose) (HPC)
[5] = dose: 100.0 mg/kg/injection, schedule: Q01DX009 (ip), vehicle: saline with Tween-80
[6] = dose: 400.0 mg/kg/injection, schedule: Q01DX009 (ip), vehicle: saline with Tween-80
[7] = dose: 6.25 mg/kg/injection, schedule: Q01DX009 (ip), vehicle: saline
[8] = dose: 12.5 mg/kg/injection, schedule: Q01DX009 (ip), vehicle: saline
[9] = dose: 25.0 mg/kg/injection, schedule: Q01DX009 (ip), vehicle: saline
[10] = dose: 50.0 mg/kg/injection, schedule: Q01DX009 (ip), vehicle: saline
[11] = dose: 100.0 mg/kg/injection, schedule: Q01DX009 (ip), vehicle: saline
[12] = dose: 200.0 mg/kg/injection, schedule: Q01DX009 (ip), vehicle: saline with Tween-80

Measured: T/C

CC1=C(C)C(=O)O[C@@H]([C@](C)(O)[C@]2(O)CC[C@@]3(O)[C@@H]4C[C@H]5O[C@]56[C@@H](O)C=CC(=O)[C@]6(C)[C@H]4CC[C@]23C)C1
inactive: dose: 2.0 mg/kg/injection, schedule: Q01DX005 (ip), vehicle: saline + alcohol 117 % of control | dose: 2.0 mg/kg/injection, schedule: Q01DX005 (iv), vehicle: saline + alcohol 99 % of control | dose: 4.0 mg/kg/injection, schedule: Q01DX001 (ip), vehicle: saline + alcohol 113 % of control | dose: 4.0 mg/kg/injection, schedule: Q01DX001 (iv), vehicle: saline + alcohol 103 % of control | dose: 4.0 mg/kg/injection, schedule: Q01DX005 (iv), vehicle: saline + alcohol 97 % of control | dose: 4.0 mg/kg/injection, schedule: Q01DX005 (oral), vehicle: saline + alcohol 103 % of control | dose: 4.0 mg/kg/injection, schedule: Q01DX009 (oral), vehicle: saline + alcohol 90 % of control | dose: 8.0 mg/kg/injection, schedule: Q01DX001 (ip), vehicle: saline + alcohol 113 % of control | dose: 8.0 mg/kg/injection, schedule: Q01DX001 (iv), vehicle: saline + alcohol 114 % of control | dose: 8.0 mg/kg/injection, schedule: Q01DX001 (oral), vehicle: saline + alcohol 97 % of control | dose: 8.0 mg/kg/injection, schedule: Q01DX005 (iv), vehicle: saline + alcohol 95 % of control | dose: 8.0 mg/kg/injection, schedule: Q01DX005 (oral), vehicle: saline + alcohol 103 % of control | dose: 8.0 mg/kg/injection, schedule: Q01DX009 (oral), vehicle: saline + alcohol 95 % of control | dose: 16.0 mg/kg/injection, schedule: Q01DX001 (iv), vehicle: saline + alcohol 92 % of control | dose: 16.0 mg/kg/injection, schedule: Q01DX001 (oral), vehicle: saline + alcohol 99 % of control | dose: 16.0 mg/kg/injection, schedule: Q01DX005 (ip), vehicle: saline + alcohol 116 % of control | dose: 16.0 mg/kg/injection, schedule: Q01DX005 (iv), vehicle: saline + alcohol 92 % of control | dose: 16.0 mg/kg/injection, schedule: Q01DX005 (oral), vehicle: saline + alcohol 104 % of control | dose: 16.0 mg/kg/injection, schedule: Q01DX009 (oral), vehicle: saline + alcohol 94 % of control | dose: 32.0 mg/kg/injection, schedule: Q01DX001 (ip), vehicle: saline + alcohol 116 % of control | dose: 32.0 mg/kg/injection, schedule: Q01DX001 (iv), vehicle: saline + alcohol 101 % of control | dose: 32.0 mg/kg/injection, schedule: Q01DX001 (oral), vehicle: saline + alcohol 103 % of control | dose: 32.0 mg/kg/injection, schedule: Q01DX005 (iv), vehicle: saline + alcohol 99 % of control | dose: 32.0 mg/kg/injection, schedule: Q01DX005 (oral), vehicle: saline + alcohol 90 % of control | dose: 32.0 mg/kg/injection, schedule: Q01DX009 (oral), vehicle: saline + alcohol 104 % of control | dose: 64.0 mg/kg/injection, schedule: Q01DX001 (iv), vehicle: saline + alcohol 105 % of control | dose: 64.0 mg/kg/injection, schedule: Q01DX001 (oral), vehicle: saline + alcohol 101 % of control | dose: 64.0 mg/kg/injection, schedule: Q01DX005 (oral), vehicle: saline + alcohol 97 % of control | dose: 64.0 mg/kg/injection, schedule: Q01DX009 (oral), vehicle: saline + alcohol 101 % of control | dose: 128.0 mg/kg/injection, schedule: Q01DX001 (oral), vehicle: saline + alcohol 105 % of control

CC(=O)c1ccccc1C
inactive: dose: 12.5 mg/kg/injection, schedule: Q01DX009 (ip), vehicle: saline with Tween-80 102 % of control | [1] 108 % of control | [2] 92 % of control and 123 % of control

O=C(O)COc1ccc(OCC(=O)O)cc1
inactive: dose: 0.75 mg/kg/injection, schedule: Q01DX009 (ip), vehicle: Klucel (hydroxypropylcellulose) (HPC) 89 % of control | dose: 1.5 mg/kg/injection, schedule: Q01DX009 (ip), vehicle: Klucel (hydroxypropylcellulose) (HPC) 89 % of control

CCP(=S)(CC)P(=S)(CC)CC
inactive: dose: 50.0 mg/kg/injection, schedule: Q01DX009 (ip), vehicle: Klucel (hydroxypropylcellulose) (HPC) 101 % of control | [3] 112 % of control | [4] 94 % of control

CCN(CC)CCNc1ccc(N=Nc2cnc3ccccc3c2)c2ccccc12
inactive: [1] 90 % of control | [2] 94 % of control

O=C1C(N2CCCCC2)=C(N2CC2)C(=O)C(N2CCCCC2)=C1N1CC1
inactive: dose: 2.5 mg/kg/injection, schedule: Q01DX009 (ip), vehicle: saline 94 % of control and 97 % of control | dose: 5.0 mg/kg/injection, schedule: Q01DX009 (ip), vehicle: saline 121 % of control

COc1cc(/C=N/NC(=O)N/N=C/c2cc(OC)c(OC)c(OC)c2)cc(OC)c1OC
inactive: [3] 93 % of control | [4] 90 % of control

C#CC(C)OCC1CNC(=S)O1 (stereo not given)
inactive: [1] 100 % of control | [2] 89 % of control | [5] 97 % of control | [6] 91 % of control

C=C(NC(=O)C(=C)NC(=O)c1csc(C2=NC3c4csc(n4)C4NC(=O)c5csc(n5)C(C(C)(O)C(C)O)NC(=O)C5CSC(=N5)/C(=C/C)NC(=O)C(C(C)O)NC(=O)c5csc(n5)C3(CC2)NC(=O)C(C)NC(=O)C(=C)NC(=O)C(=C)NC(=O)C(C(C)C)NC2C=Cc3c(C(C)O)cc(nc3C2O)C(=O)OC4C)n1)C(N)=O (stereo not given)
inactive: dose: 3.12 mg/kg/injection, schedule: Q01DX009 (ip), vehicle: saline 114 % of control | [7] 104 % of control and 117 % of control | [8] 109 % of control and 114 % of control | [9] 110 % of control and 120 % of control | [10] 119 % of control and 120 % of control | [11] 123 % of control

CC(=O)Nc1ccn(C2OC(CO)C(O)C2O)c(=O)n1 (stereo not given)
inactive: [1] 88 % of control | [2] 97 % of control | [12] 92 % of control

Oc1ccc(SCc2ccc(NCc3ccccc3)cc2)cc1
inactive: dose: 12.5 mg/kg/injection, schedule: Q01DX009 (ip), vehicle: other 92 % of control | dose: 12.5 mg/kg/injection, schedule: Q01DX009 (ip), vehicle: saline + alcohol 105 % of control | dose: 25.0 mg/kg/injection, schedule: Q01DX009 (ip), vehicle: other 97 % of control | dose: 25.0 mg/kg/injection, schedule: Q01DX009 (ip), vehicle: saline + alcohol 103 % of control | dose: 50.0 mg/kg/injection, schedule: Q01DX009 (ip), vehicle: other 102 % of control | dose: 50.0 mg/kg/injection, schedule: Q01DX009 (ip), vehicle: saline + alcohol 99 % of control | dose: 100.0 mg/kg/injection, schedule: Q01DX009 (ip), vehicle: other 104 % of control | dose: 100.0 mg/kg/injection, schedule: Q01DX009 (ip), vehicle: saline + alcohol 107 % of control | dose: 200.0 mg/kg/injection, schedule: Q01DX009 (ip), vehicle: other 102 % of control | dose: 200.0 mg/kg/injection, schedule: Q01DX009 (ip), vehicle: saline + alcohol 103 % of control | dose: 400.0 mg/kg/injection, schedule: Q01DX009 (ip), vehicle: other 96 % of control | dose: 400.0 mg/kg/injection, schedule: Q01DX009 (ip), vehicle: saline + alcohol 99 % of control

O=c1[nH]cnc2ccc(Cl)cc12
inactive: dose: 37.5 mg/kg/injection, schedule: Q01DX009 (ip), vehicle: saline with Tween-80 102 % of control | dose: 75.0 mg/kg/injection, schedule: Q01DX009 (ip), vehicle: saline with Tween-80 102 % of control

COc1ccccc1C(=O)c1ccccc1Cc1cccc2ccccc12
inactive: [2] 98 % of control | [5] 97 % of control | [12] 92 % of control | [6] 93 % of control

S=C(NC1CCCCC1)NC1CCCCC1
inactive: [5] 95 % of control | [12] 114 % of control | [6] 90 % of control

COc1ccc(C(C)=O)cc1[N+](=O)[O-]
inactive: [2] 97 % of control | [5] 102 % of control | [12] 105 % of control

O=C(NCCCN1CCN(CCCNC(=O)c2cccnc2)CC1)c1cccnc1
inactive: [7] 107 % of control | [8] 107 % of control | [9] 112 % of control | [10] 104 % of control | [11] 95 % of control

Cn1c(=O)c2[nH]c(Cc3ccc4c(c3)OCO4)nc2n(C)c1=O
inactive: dose: 0.25 mg/kg/injection, schedule: Q01DX009 (ip), vehicle: Klucel (hydroxypropylcellulose) (HPC) 96 % of control | dose: 0.5 mg/kg/injection, schedule: Q01DX009 (ip), vehicle: Klucel (hydroxypropylcellulose) (HPC) 94 % of control | dose: 1.0 mg/kg/injection, schedule: Q01DX009 (ip), vehicle: Klucel (hydroxypropylcellulose) (HPC) 96 % of control | dose: 2.0 mg/kg/injection, schedule: Q01DX009 (ip), vehicle: Klucel (hydroxypropylcellulose) (HPC) 93 % of control
